Data from patent US20210051963A1, “METHODS AND COMPOSITIONS TO IMPROVE PLANT HEALTH AND/OR PLANT PERFORMANCE” (PLANTRESPONSE BIOTECH, S.L., priority 2017, published 2021).

What was measured:
[1] = test system: Sclerotinia sclerotiorum strain CH109; assay: White mold disease index in tomato plants treated with PRBT, 6-HP-2CA or 6-OXO-2CA; assay type: in vivo; details: for disease index vs untreated inoculated tomato plants: PRBT 0.054 g L-1, 6-HP-2CA 0.1 g/l, 6-OXO-2CA 0.1 g/l, 10 and 14 dpi; for Disease Control (%) / Disease index (10 dpi) / Disease index (15 dpi): inoculated tomato var. Money Maker, PRBT 0.054 g/L, 6-HP-2CA or 6-OXO-2CA 0.1 g/L, 25 ml/plant; for Disease index (10 dpi) / Disease index (15 dpi): score 0-5
Description: Tomato plants var. Money Maker were sown on Dec. 13, 2016, distributed in random blocks of 9 plants with 4 replicates (36 plants per treatment) and grown in a standard greenhouse. Treated plants were sprayed on Mar. 6, 2017 with 25 ml/plant at 3 ml/1 (0.054 g L^−1) of PRBT (with surfactant 2:1, v/w, antifoam and biocide) or with 25 ml (0.1 g L^−1) of 6-hydroxypiperidine-2-carboxylic acid (6-HP-2CA), or with 25 ml (0.1 g 1-1) of 6-oxopiperidine-2-carboxylic acid (6-OXO-2CA).
Two days later plants were inoculated with 25 ml/plant of a foliar spray of blended Sclerotinia sclerotiorum strain CH109 mycelium that had been grown to optical density at 600 nm of 0.8. Plants were kept at 100% relative humidity for seven days and then humidity was lowered to 80% for the rest of the experiment. Plants were then evaluated at 10 and 14 days post inoculation (dpi) according to a disease severity index score were 0 corresponds to no symptoms and 5 to a dead plant. No statistically significant differences among treatments with the same letter (LSD method, p=0.05)

[2] = test system: Sclerotinia sclerotiorum strain CH109; assay: White mold disease index in pepper plants treated with PRBT or 6-HP-2CA; assay type: in vivo; details: for Disease index 4 dpi / Disease index 6 dpi: inoculated pepper var. Murano, 10 ml/plant, score 0-4
Description: Pepper plants var. Murano were sown on Oct. 20, 2016 and distributed in random blocks of 3 plants with 4 replicates (12 plants per treatment) and grown in a standard greenhouse. PRBT treated plants were sprayed on Nov. 23, 2016 with (0.038 g L^−1) PRBT at 10 ml/plant or with (0.01 g L^−1) 6-hydroxypiperidine-2-carboxylic acid (6-HP-2CA) or with (0.1 g L^−1) 6-HP-2CA or with (0.01 g L^−1) 6-HP-2CA formulated with an adjuvant or with (0.1 g L^−1) 6-HP-2CA (0.01 g L^−1) formulated with an adjuvant at 10 ml/plant. Two days later plants were inoculated with 10 ml/plant of a foliar spray of blended Sclerotinia sclerotiorum strain CH109 mycelium that had been grown to optical density at 600 nm of 1.7. Plants were kept at 100% relative humidity for four days and then humidity was lowered to 80% for the rest of the experiment. Plants were then evaluated 4, and 6 days post inoculation (dpi) according to a disease severity index score were 0 corresponds to no symptoms and 4 to a dead plant. No statistically significant differences among treatments with the same letter (LSD method, p=0.05)

Row | Compound | disease index vs untreated inoculated tomato plants [1] | Disease Control (%) [1] | Disease index (10 dpi) [1] | Disease index (15 dpi) [1] | disease index vs untreated inoculated pepper plants ([2]; high (0.1 g/L) concentration) | Disease index 4 dpi ([2]; 0.01 g/L) | Disease index 6 dpi ([2]; 0.01 g/L) | Disease index 4 dpi ([2]; 0.1 g/L) | Disease index 6 dpi ([2]; 0.1 g/L)
1 | O=C1CCC[C@H](C(=O)O)N1 (stereo in doubt) [6-OXO-2CA, 6-oxopiperidine-2-carboxylic acid] | significantly lower | 10 c % | 2.3 b | 2.3 b |  |  |  |  | 
2 | O=C(O)C1CCCC(O)N1 (stereo not shown) [6-HP-2CA, 6-hydroxypiperidine-2-carboxylic acid] | significantly lower | 11 c % | 2.2 b | 2.2 b | significantly lower | 0.9 b | 2.3 b | 0.2 a | 0.5 a
